From patent US20140377278A1, “Compositions and Methods for Assessing and Treating Inflammatory Diseases and Disorders” (Yale University, priority 2012, published 2014)

Tested on: ASC^−/− mice
Assay: DSS colitis in ASC-deficient mice after oral antimicrobial pretreatment
Format: in vivo
Details: oral antiviral, antifungal or antiparasitic treatment before DSS; weight loss compared (FIGS. 13C-13E)

Structure (SMILES)	severity of colitis in ASC-deficient mice
C[C@@H]1[C@H](O)[C@@H](C)/C=C/C=C/C=C/C=C/C=C/C=C/C=C/[C@H](O[C@@H]2O[C@H](C)[C@@H](O)[C@H](N)[C@@H]2O)C[C@@H]2O[C@](O)(C[C@@H](O)C[C@@H](O)[C@H](O)CC[C@@H](O)C[C@@H](O)CC(=O)O[C@H]1C)C[C@H](O)[C@H]2C(=O)O [amphotericin, amphotericin B]	None of these treatments altered the severity of colitis
Nc1nc(O)c2ncn(COC(CO)CO)c2n1 [gancyclovir]	None of these treatments altered the severity of colitis
